Reference: patent publication US4093717A, “Antimicrobial compositions” (University of Mississippi, priority 1975, dated 1978)
Values after ≈ are worked out from the molar mass of the structure shown. Counter-ions that a name gives are not always drawn. Like-named read-outs stand apart in the source and are kept apart here.

What was measured:
[1] = test system: Saccharomyces cerevisiae ATCC 9763; experiment: agar well diffusion assay, S. cerevisiae; assay type: cell-based; conditions: read-out: width of the clear zone of inhibition, S. cerevisiae
Method: (§1) Bacterial test organisms were cultured in Eugonager and Eugonbroth (BBL), and fungi and yeasts were cultured in Mycophil (BBL) agar and broth. Antimicrobial activity was recorded as the width (in millimeters) of the clear zone of inhibition surrounding the agar well.
(§2) Qualitative evaluation of antimicrobial activity of the inventive extracts, fractions, and pure compounds was accomplished using an agar well diffusion assay. As set out hereinbefore, the inventive compositions were tested for activity against the following microorganisms: Staphylococcus aureus ATCC 6538; Escherichia coli ATCC 10536; Mycobacterium smegmatis ATCC 607; Pseudomonas aeruginosa ATCC 15442; Candida albicans ATCC 10321; Saccharomyces cerevisiae ATCC 9763; and Asperigillus niger ATCC 16888. In addition, the compounds of the preferred embodiments were also tested against Bacillus subtilis ATCC 6633. Bacterial test organisms were cultured in Eugonagar and Eugonbroth (BBL), and fungi and yeasts were cultured in Mycophil (BBL) agar and broth.
(§3) Plates for assay were prepared by uniformly seeding sterily, partially cooled, molten agar with dilutions of test organisms grown in broth or suspensions of conidia produced on agar slants (A. niger). The seeded agar medium was dispensed into 100 × 15 mm sterile petri dishes (15 ml per dish). Cylindrical plugs were removed from the solidified agar plates, using a sterile cork borer, to produce wells having a diameter of approximately 11 mm. One hundred microliters of a solution or suspension of an extract, fraction, or pure compound was added to each well. The extracts and fractions were tested as solutions or suspensions in a concentration of 20 mg/ml; pure compounds were tested at 1 mg/ml. When solvents other than water were required to dissolve extracts or compounds, solvent blanks were run against each test organism.
(§4) Plates prepared as described above were incubated as follows: Bacteria were grown at 37° C. for 24 hours, with the exception of M. smegmatis, which grows more slowly and requires incubation at 37° C. for 48 hours, before reading. Fungi or yeast were incubated at 25° C. for 24 hours, before growth was evident.
(§5) Antimicrobial activity was recorded as the width (in mm) of the clear zone of inhibition surrounding the agar well.

Candida albicans = experiment: agar well diffusion assay, C. albicans; assay type: cell-based; conditions: read-out: width of the clear zone of inhibition, C. Albicans
Method: as §1, §2, §3, §4, §5

S. cerevisiae = experiment: two-fold serial dilution assay (MIC), S. cerevisiae; assay type: cell-based; conditions: Saccharomyces cerevisiae, read-out: Minimum Inhibitory Concentration, S. cerevisiae
From the text: (§6) Quantitive assay of antimicrobial activity of the inventive compositions against selected test organisms was made using a two-fold serial dilution in Eugonbroth or Mycophil broth. The concentration of pure alkaloids in the initial dilution tube was 50 mcg/ml. Streptomycin sulfate (Nutrional Biochemical) and amphotericin B (Calbiochem "A" grade) at the same concentrations as above were used as standard antibiotics for comparison with the activities of the alkaloids against bacteria and yeast species, respectively. Cultures used in the serial dilution assay included S. aureus, B. subtilis, M. smegmatis, C. albicans, and S. cerevisiae. Readings were taken after incubation times of 24 hours for all organisms except M. smegmatis, which was read at 72 hours. The concentration mcg/ml of the tube of highest dilution which was free from growth was recorded as the minimal inhibitory concentration in Table 3.

M. smegmatis = experiment: two-fold serial dilution assay (MIC), M. smegmatis; assay type: cell-based, Mycobacterium smegmatis; conditions: Mycolicibacterium smegmatis, read-out: Minimum Inhibitory Concentration, M. Smegmatis
From the text: as §6

[2] = test system: Bacillus subtilis ATCC 6633; experiment: agar well diffusion assay, B. subtilis; assay type: cell-based; conditions: read-out: width of the clear zone of inhibition, B. subtilis
Method: as §1, §2, §3, §4, §5

S. aureus = experiment: two-fold serial dilution assay (MIC), S. aureus; assay type: cell-based; conditions: Staphylococcus aureus; 24 hours; read-out: Minimum Inhibitory Concentration, S. aureus
From the text: as §6

C. albicans = experiment: two-fold serial dilution assay (MIC), C. albicans; assay type: cell-based, Candida albicans; conditions: for MIC: Candida albicans, read-out: Minimum Inhibitory Concentration, C. Albicans
From the text: as §6

B. subtilis = experiment: two-fold serial dilution assay (MIC), B. subtilis; assay type: cell-based; conditions: Bacillus subtilis, read-out: Minimum Inhibitory Concentration, R. Subtilis
From the text: as §6

[3] = test system: Mycobacterium smegmatis ATCC 607; experiment: agar well diffusion assay, M. smegmatis; assay type: cell-based; conditions: Mycolicibacterium smegmatis, read-out: width of the clear zone of inhibition, M. smegmatis
Method: as §1, §2, §3, §4, §5

[4] = test system: Staphylococcus aureus ATCC 6538; experiment: agar well diffusion assay, S. aureus; assay type: cell-based; conditions: read-out: width of the clear zone of inhibition, S. aureus
Method: as §1, §2, §3, §4, §5

test organisms = experiment: qualitative antimicrobial activity of extracts, fractions and compounds; assay type: cell-based; conditions: text statement on extracts, fractions, compounds
Method: Qualitative evaluation of antimicrobial activity of the inventive extracts, fractions, and pure compounds was accomplished using an agar well diffusion assay. As set out hereinbefore, the inventive compositions were tested for activity against the following microorganisms: Staphylococcus aureus ATCC 6538; Escherichia coli ATCC 10536; Mycobacterium smegmatis ATCC 607; Pseudomonas aeruginosa ATCC 15442; Candida albicans ATCC 10321; Saccharomyces cerevisiae ATCC 9763; and Asperigillus niger ATCC 16888. […] Bacterial test organisms were cultured in Eugonagar and Eugonbroth (BBL), and fungi and yeasts were cultured in Mycophil (BBL) agar and broth.

[5] = test system: S. aureus, B. subtilis, M. smegmatis, C. albicans, and S. cerevisiae; experiment: two-fold serial dilution assay, activity overall against bacteria and yeasts; assay type: cell-based; conditions: from the data in Table 3
From the text: as §6

[6] = test system: Asperigillus niger ATCC 16888; experiment: agar well diffusion assay, A. niger; assay type: cell-based; conditions: Aspergillus niger, read-out: width of the clear zone of inhibition, A. niger
Method: as §1
as §2, with “broth. […]” for “broth.”
Plates prepared as described above were incubated as follows: Bacteria were grown at 37° C. for 24 hours, with the exception of M. smegmatis, which grows more slowly and requires incubation at 37° C. for 48 hours, before reading. […]
as §5

[7] = ATCC9763, 25° C., 24 hours, pure compounds 1 mg/ml, 100 microliters per well
[8] = 25° C., 24 hours, extracts and fractions 20 mg/ml, pure compounds 1 mg/ml, 100 microliters per well
[9] = ATCC6633, 37° C., 24 hours, pure compounds 1 mg/ml, 100 microliters per well
[10] = ATCC607, 37° C., 48 hours, extracts and fractions 20 mg/ml, pure compounds 1 mg/ml, 100 microliters per well
[11] = ATCC6538, 37° C., 24 hours, extracts and fractions 20 mg/ml, pure compounds 1 mg/ml, 100 microliters per well

Structure (SMILES) | zone of inhibition at 1000 µg/mL [1, 7] [mm] | zone of inhibition at 1000 µg/mL (Candida albicans; [8]) [mm] | MIC (S. cerevisiae; 24 hours) [µg/mL] | MIC (M. smegmatis; 72 hours) [µg/mL] | zone of inhibition at 1000 µg/mL [2, 9] [mm] | MIC (S. aureus) [µg/mL] | MIC (C. albicans; 24 hours) [µg/mL] | MIC (B. subtilis; 24 hours) [µg/mL] | zone of inhibition at 1000 µg/mL [3, 10] [mm] | zone of inhibition at 1000 µg/mL [4, 11] [mm] | MIC (S. cerevisiae; 24 h) [µg/mL] | MIC (C. albicans; 24 h) [µg/mL] | zone of inhibition at 1000 µg/mL ([1]; ATCC9763, 24 h) [mm] | zone of inhibition at 1000 µg/mL (Candida albicans; 24 h) [mm] | MIC (M. smegmatis; 72 h) [µg/mL] | zone of inhibition at 1000 µg/mL ([2]; ATCC6633, 24 h) [mm] | MIC (B. subtilis; 24 h) [µg/mL] | zone of inhibition at 1000 µg/mL ([3]; ATCC607, 48 h) [mm] | antimicrobial activity (in words) (test organisms) | zone of inhibition at 1000 µg/mL ([4]; ATCC6538, 24 h) [mm] | other results
COc1cc2c(cc1OC)-c1c(OC)c(OC)cc3cc[n+](C)c(c13)C2=O [oxoglaucine methiodide] | 11 | 10 | 25 | 25 | 9 | 25 | 1.56 | 25 | 10 | 9 |  |  |  |  |  |  |  |  |  |  | activity against C. albicans (in words) (C. albicans; from the data in Table 3): particularly active against C. albicans
C[C@@H]1[C@H](O)[C@@H](C)/C=C/C=C/C=C/C=C/C=C/C=C/C=C/[C@H](O[C@@H]2O[C@H](C)[C@@H](O)[C@H](N)[C@@H]2O)C[C@@H]2O[C@](O)(C[C@@H](O)C[C@@H](O)[C@H](O)CC[C@@H](O)C[C@@H](O)CC(=O)O[C@H]1C)C[C@H](O)[C@H]2C(=O)O [amphotocericin B, amphotericin B, reference compound] |  |  |  |  |  |  |  |  |  |  | 0.78 (≈ 0.844 µM) | 0.78 (≈ 0.844 µM) |  |  |  |  |  |  |  |  | 
COc1cc2cc3c4c(cc(OC)c(OC)c4c2cc1OC)CCN3C [dehydroglaucine] |  |  |  |  |  | 25 (≈ 70.7 µM) |  |  |  |  | 50 (≈ 141 µM) | 25 (≈ 70.7 µM) | 6 | 6 | 25 (≈ 70.7 µM) | 7 | 25 (≈ 70.7 µM) | 8 | exhibited antimicrobial activity | 4 | antimicrobial activity (in words) (test organisms; listed as Dehydroglaucine): exhibit all of the antimicrobial activity in that Fraction
[H]/N=C(/N)N[C@H]1[C@H](O)[C@@H](O)[C@H](O[C@@H]2O[C@@H](C)[C@](O)(C=O)[C@H]2O[C@@H]2O[C@@H](CO)[C@H](O)[C@@H](O)[C@@H]2NC)[C@@H](N/C(N)=N\[H])[C@@H]1O [streptomycin sulfate, reference compound] |  |  |  |  |  | 3.1 |  |  |  |  |  |  |  |  | 0.78 |  | 1.56 |  |  |  | 
O=C1c2ccccc2-c2c3c(cc4ccnc1c24)OCO3 [liriodenine] |  |  |  |  |  | 3.1 (≈ 11.3 µM) |  |  |  |  | 6.2 (≈ 22.5 µM) | 6.2 (≈ 22.5 µM) | 5 | 3 | 1.56 (≈ 5.67 µM) | 8 | 0.39 (≈ 1.42 µM) | 11 | exhibited antimicrobial activity | 5 | in vitro activity compared with standard antibiotics or other alkaloids [5]: in vitro activity comparable to that of streptomycin sulfate and amphotericin B; zone of inhibition at 1000 µg/mL ([6]; ATCC16888, 24 h): 11 mm; antimicrobial activity (in words) (test organisms; listed as Liriodenine): contained all of the antimicrobial activity in this fraction
C[n+]1ccc2cc3c(c4c2c1C(=O)c1ccccc1-4)OCO3 [liriodenine methiodide] | 15 | 17 | 3.1 | 3.1 | 6 | 6.2 | 0.78 | 3.1 | 14 | 6 |  |  |  |  |  |  |  |  |  |  | in vitro activity compared with standard antibiotics or other alkaloids [5]: in vitro activity comparable to that of streptomycin sulfate and amphotericin B; zone of inhibition at 1000 µg/mL ([6]; ATCC16888, 25° C., 24 hours, extracts and fractions 20 mg/ml, pure compounds 1 mg/ml, 100 microliters per well): 4 mm
